Experiments:
pigweed [1] = assay: Test C postemergence; assay type: in vivo, Amaranthus retroflexus; details: for Pigweed plant response rating: scale 0 to 100
Description: (§1) Seeds of plant species selected from blackgrass (Alopecurus myosuroides), ryegrass, Italian (Italian ryegrass, Lolium multiflorum), wheat (winter wheat, Triticum aestivum), galium (catchweed bedstraw, Galium aparine), corn (Zea mays), crabgrass, large (large crabgrass, Digitaria sanguinalis), foxtail, giant (giant foxtail, Setaria faberii), johnsongrass (Sorghum halepense), lambsquarters (Chenopodium album), morningglory (Ipomoea coccinea), nutsedge, yellow (yellow nutsedge, Cyperus esculentus), pigweed (redroot pigweed, Amaranthus retroflexus), ragweed (common ragweed, Ambrosia elation), soybean (Glycine max), barnyardgrass (Echinochloa crus-galli), oilseed rape (Brassica napus), waterhemp (common waterhemp, Amaranthus rudis), oat, wild (wild oat, Avena fatua), kochia (Kochia scoparia), Surinam grass (Brachiaria decumbens), foxtail, green (green foxtail, Setaria viridis), goosegrass (Eleusine indica), bromegrass, downy (downy bromegrass, Bromus tectorum), nightshade (eastern black nightshade, Solanum ptycanthum), cocklebur (common cocklebur, Xanthium strumarium), cupgrass, woolly (woolly cupgrass, Eriochloa villosa), bermudagrass (Cynodon dactylon), sunflower, (common oilseed sunflower, Helianthus annuus), Russian thistle (Salsola kali), and velvetleaf (Abutilon theophrasti) were planted into a blend of loam soil and sand and treated preemergence with test chemicals formulated in a non-phytotoxic solvent mixture which included a surfactant.
(§2) At the same time, plants selected from these crop and weed species and also chickweed (common chickweed, Stellaria media), canarygrass (littleseed canarygrass, Phalaris minor), and deadnettle (henbit deadnettle, Lamium amplexicaule), were planted in pots containing Redi-Earth® planting medium (Scotts Company, 14111 Scottslawn Road, Marysville, Ohio 43041) comprising spaghnum peat moss, vermiculite, wetting agent and starter nutrients and treated with postemergence applications of test chemicals formulated in the same manner. Plants ranged in height from 2 to 18 cm (1- to 4-leaf stage) for postemergence treatments. Treated plants and controls were maintained in a greenhouse for 13 to 15 days, after which time all species were compared to controls and visually evaluated. Plant response ratings, summarized in Table C, are based on a scale of 0 to 100 where 0 is no effect and 100 is complete control. A dash (-) response means no test result.

wheat = assay: Test A preemergence; assay type: in vivo, Triticum aestivum
In short: (§3)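 Growth medium: loam soil blended with sand. Preemergence treatment used a directed soil spray right after planting; postemergence treatment targeted seedlings at one to two leaves (2–10 cm height). Response was judged by eye relative to untreated plants about 10 days later on a 0–100 control scale.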

blackgrass = assay: Test C postemergence; assay type: in vivo, Alopecurus myosuroides; details: for Blackgrass plant response rating: scale 0 to 100
Description: as §1, §2

morningglory [2] = assay: Test A preemergence; assay type: in vivo, Ipomoea spp.; details: 0 to 100 scale
In short: as §3

ragweed = assay: Test C postemergence; assay type: in vivo, Ambrosia elation
Description: as §1, §2

morningglory [3] = assay: Test C postemergence; assay type: in vivo, Ipomoea coccinea; details: for Morningglory plant response rating: scale 0 to 100
Description: as §1, §2

corn = assay: Test A preemergence; assay type: in vivo, Zea mays; details: 0 to 100 scale
In short: as §3

pigweed [4] = assay: Test C preemergence; assay type: in vivo, Amaranthus retroflexus
In short: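 Seeds were sown in a loam soil–sand blend and sprayed preemergence with compounds formulated in a non-phytotoxic solvent mixture containing surfactant. Postemergence plants, grown in peat/vermiculite medium to 2–18 cm (1- to 4-leaf stage), received the same formulation. After 13 to 15 days in a greenhouse, injury was rated visually against controls (0 = no effect, 100 = complete control).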

barnyardgrass = assay: Test C preemergence; assay type: in vivo, Echinochloa crus-galli
Description: as §1, §2

johnsongrass = assay: Test C preemergence; assay type: in vivo, Sorghum halepense
Description: as §1, §2

[5] = postemergence, 250 g ai/ha, scale 0 to 100 (0 no effect, 100 complete control)
[6] = postemergence, 62 g ai/ha, scale 0 to 100, 0 no effect, 100 complete control
[7] = postemergence, 125 g ai/ha, scale 0 to 100, 0 no effect, 100 complete control
[8] = Preemergence, 1000 g ai/ha, 0 to 100 scale, 0 no effect, 100 complete control
[9] = Preemergence, 1000 g ai/ha, 0 no effect, 100 complete control
[10] = Preemergence, 16 g ai/ha, scale 0 to 100
[11] = preemergence, 31 g ai/ha, scale 0 to 100 (0 no effect, 100 complete control), 13 to 15 days
[12] = preemergence, 62 g ai/ha, 13 to 15 days, scale 0 to 100, 0 = no effect, 100 = complete control
[13] = preemergence, 125 g ai/ha, scale 0 to 100, 0 is no effect, 100 is complete control
[14] = Preemergence, 500 g ai/ha, 0 no effect, 100 complete control
[15] = preemergence, 125 g ai/ha, visual injury, approx. 10 days

SMILES: CCc1cc(C(=O)NCC(F)(F)F)nn1Cc1cccc(OC(F)(F)F)c1 [Compound 20]
- Pigweed plant response rating (pigweed [1]; Postemergence, 31 g ai/ha): 60
- Plant response rating, Pigweed (pigweed [1]; [5]): 80
- Plant response rating, Pigweed (pigweed [1]; [6]): 75
- Plant response rating, Pigweed (pigweed [1]; [7]): 75
- Wheat plant response rating (wheat; [8]): 20
- Blackgrass plant response rating (blackgrass; Postemergence, 31 g ai/ha): 5
- Plant response rating, Blackgrass (blackgrass; [5]): 20
- Plant response rating, Blackgrass (blackgrass; [6]): 5
- Plant response rating, Blackgrass (blackgrass; [7]): 15
- Morningglory plant response rating (morningglory [2]; [9]): 70
- Plant response rating, Ragweed (ragweed; [5]): 25
- Plant response rating, Ragweed (ragweed; [6]): 15
- Plant response rating, Ragweed (ragweed; [7]): 15
- Morningglory plant response rating (morningglory [3]; Postemergence, 31 g ai/ha): 10
- Plant response rating, Morningglory (morningglory [3]; [5]): 70
- Plant response rating, Morningglory (morningglory [3]; [6]): 25
- Plant response rating, Morningglory (morningglory [3]; [7]): 60
- Corn plant response rating (corn; [9]): 20

SMILES: CCCNC(=O)c1cc(CC)n(Cc2ccnc(C(F)(F)F)c2)n1 [Compound 75]
- Plant response rating, Pigweed (pigweed [4]; [10]): 85
- Pigweed plant response rating (pigweed [4]; [11]): 100
- Plant response rating, Pigweed (pigweed [4]; [12]): 100
- Pigweed plant response rating (pigweed [4]; [13]): 100
- Plant response rating, Barnyardgrass (barnyardgrass; [10]): 60
- Barnyardgrass plant response rating (barnyardgrass; [11]): 100
- Plant response rating, Barnyardgrass (barnyardgrass; [12]): 100
- Barnyardgrass plant response rating (barnyardgrass; [13]): 100
- Plant response rating (scale of 0 to 100), Pigweed (pigweed [1]; Postemergence, 16 g ai/ha): 40
- Pigweed plant response rating (pigweed [1]; Postemergence, 31 g ai/ha): 40
- Pigweed plant response rating (pigweed [1]; postemergence, 62 g ai/ha): 60
- Plant response rating, Pigweed (pigweed [1]; [7]): 80
- Wheat plant response rating (wheat; preemergence, 125 g ai/ha, visual injury, 0 to 100 scale, approx. 10 days): 80
- Wheat plant response rating (wheat; preemergence, 500 g ai/ha, visual injury after approx. 10 days, 0 to 100 scale (0 no effect, 100 complete control)): 100
- Plant response rating (scale of 0 to 100), Blackgrass (blackgrass; Postemergence, 16 g ai/ha): 5
- Blackgrass plant response rating (blackgrass; Postemergence, 31 g ai/ha): 5
- Blackgrass plant response rating (blackgrass; postemergence, 62 g ai/ha): 10
- Plant response rating, Blackgrass (blackgrass; [7]): 15
- Morningglory plant response rating (morningglory [2]; [14]): 90
- Morningglory plant response rating (morningglory [2]; [15]): 90
- Plant response rating (scale of 0 to 100), Ragweed (ragweed; Postemergence, 16 g ai/ha): 40
- Ragweed plant response rating (ragweed; postemergence, 62 g ai/ha, scale 0 to 100): 70
- Plant response rating, Ragweed (ragweed; [7]): 85
- Plant response rating (scale of 0 to 100), Morningglory (morningglory [3]; Postemergence, 16 g ai/ha): 25
- Morningglory plant response rating (morningglory [3]; Postemergence, 31 g ai/ha): 75
- Morningglory plant response rating (morningglory [3]; postemergence, 62 g ai/ha): 80
- Plant response rating, Morningglory (morningglory [3]; [7]): 98
- Plant response rating, Johnsongrass (johnsongrass; [10]): 65
- Johnsongrass plant response rating (johnsongrass; [11]): 100
- Plant response rating, Johnsongrass (johnsongrass; [12]): 100
- Johnsongrass plant response rating (johnsongrass; [13]): 100
- Corn plant response rating (corn; [14]): 90
- Corn plant response rating (corn; [15]): 80

SMILES: CCCNC(=O)c1cc(CC)n(Cc2cccc(OC(F)(F)F)c2)n1 [Compound 27]
- Pigweed plant response rating (pigweed [1]; Postemergence, 31 g ai/ha): 40
- Plant response rating, Pigweed (pigweed [1]; [5]): 50
- Plant response rating, Pigweed (pigweed [1]; [6]): 40
- Plant response rating, Pigweed (pigweed [1]; [7]): 40
- Wheat plant response rating (wheat; [8]): 20
- Blackgrass plant response rating (blackgrass; Postemergence, 31 g ai/ha): 10
- Plant response rating, Blackgrass (blackgrass; [5]): 20
- Plant response rating, Blackgrass (blackgrass; [6]): 15
- Plant response rating, Blackgrass (blackgrass; [7]): 15
- Morningglory plant response rating (morningglory [2]; [9]): 90
- Plant response rating, Ragweed (ragweed; [5]): 10
- Plant response rating, Ragweed (ragweed; [6]): 0
- Plant response rating, Ragweed (ragweed; [7]): 5
- Morningglory plant response rating (morningglory [3]; Postemergence, 31 g ai/ha): 5
- Plant response rating, Morningglory (morningglory [3]; [5]): 75
- Plant response rating, Morningglory (morningglory [3]; [6]): 60
- Plant response rating, Morningglory (morningglory [3]; [7]): 60
- Corn plant response rating (corn; [9]): 30

— US20150105252A1, “SUBSTITUTED PYRAZOLES AS HERBICIDES” (E I DU PONT DE NEMOURS AND COMPANY, priority 2013, published 2015)
